Laboratory results taken from patent US12637468B2, “Substituted [1,2,4]triazolo[4,3-b]pyridazines as GABAA receptor modulators” (SHANGHAI SIMR BIOTECHNOLOGY CO., LTD., priority 2019, dated 2026).

These compounds were tested against T1, α5-GABAA receptor (Homo sapiens, UniProt P18507+P31644) (assay: Cell-level screening: whole cell patch clamp, inverse agonist efficacy on α5-GABAA receptor expressed in HEK293). Details: drug 100 nM, GABA 0.05 μM, HEK293 expressing α5, β3 and γ2 subunits, clamped at −60 mV; read-out: Compound inverse agonist efficacy %.
T1 construct: expressed in transfected cells; host or cells: HEK293, monoclonal stably transfected line
T1 sequence (P31644 32-462): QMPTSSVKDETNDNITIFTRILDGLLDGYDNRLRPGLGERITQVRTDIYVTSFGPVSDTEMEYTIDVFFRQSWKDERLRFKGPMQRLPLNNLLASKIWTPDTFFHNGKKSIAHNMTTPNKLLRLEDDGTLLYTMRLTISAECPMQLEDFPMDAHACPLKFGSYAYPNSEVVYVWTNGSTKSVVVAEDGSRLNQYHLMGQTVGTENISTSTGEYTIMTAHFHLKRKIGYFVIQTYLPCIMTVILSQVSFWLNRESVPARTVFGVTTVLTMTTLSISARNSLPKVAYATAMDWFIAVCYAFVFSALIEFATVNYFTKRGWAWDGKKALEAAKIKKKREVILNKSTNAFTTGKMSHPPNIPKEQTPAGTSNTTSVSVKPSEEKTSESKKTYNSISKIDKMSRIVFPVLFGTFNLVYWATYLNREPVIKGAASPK
T1 sequence (P28472 26-473 partner): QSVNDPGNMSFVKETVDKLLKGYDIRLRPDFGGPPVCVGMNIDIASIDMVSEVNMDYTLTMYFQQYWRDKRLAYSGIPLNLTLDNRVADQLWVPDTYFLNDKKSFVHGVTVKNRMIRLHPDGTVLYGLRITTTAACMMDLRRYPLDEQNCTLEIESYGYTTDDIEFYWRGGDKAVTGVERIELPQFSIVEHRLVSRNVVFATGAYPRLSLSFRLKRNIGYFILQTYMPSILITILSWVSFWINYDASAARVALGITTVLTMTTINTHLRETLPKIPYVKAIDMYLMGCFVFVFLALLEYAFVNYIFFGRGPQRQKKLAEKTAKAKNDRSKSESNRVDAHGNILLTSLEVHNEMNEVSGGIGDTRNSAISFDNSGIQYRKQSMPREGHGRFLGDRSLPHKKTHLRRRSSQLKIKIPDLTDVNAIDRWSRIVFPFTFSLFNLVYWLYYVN
T1 sequence (P18507 40-467 isoform P18507-1 limits assumed): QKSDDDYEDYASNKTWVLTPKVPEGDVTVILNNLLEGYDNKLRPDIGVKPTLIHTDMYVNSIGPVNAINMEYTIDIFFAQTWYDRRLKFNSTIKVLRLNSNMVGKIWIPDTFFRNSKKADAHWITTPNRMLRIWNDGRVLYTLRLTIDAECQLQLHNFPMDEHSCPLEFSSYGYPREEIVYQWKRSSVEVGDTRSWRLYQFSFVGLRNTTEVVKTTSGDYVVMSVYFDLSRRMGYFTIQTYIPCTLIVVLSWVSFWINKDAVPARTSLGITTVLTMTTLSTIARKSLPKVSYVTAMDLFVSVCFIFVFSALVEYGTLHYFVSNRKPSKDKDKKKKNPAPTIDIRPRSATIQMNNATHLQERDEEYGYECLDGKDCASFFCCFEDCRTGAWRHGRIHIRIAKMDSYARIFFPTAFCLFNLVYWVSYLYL
Assay type: cell-based
Method: The inventors used electrophysiological methods to determine the inverse agonist efficacy of the drugs to be tested on the α5-GABAA receptor. The detailed methods are as follows:
Different subunits of GABAA receptors were expressed in human […] cell line 293 (HEK293) cell line. The cells were cultured in a culture medium and used as a cell model for screening pain inhibiting drugs. The α, β and γ subunits are necessary to form complete functional GABAA receptors. In this embodiment, the inventors had established the following cell model: α5 subunit (see GenBank Accession No. NM_000810.3 for protein sequences), β3 subunit (see GenBank Accession No. NM_000814.5 for protein sequences) and γ2 subunit (see GenBank Accession No. NM_000816.3 for protein sequences) were expressed in HEK293 cell line at the same time, followed by screening the monoclonal cell line. This cell line contained α5-GABAA receptor and had complete GABAA receptor function.
The monoclonal stably transfected HEK-293 cells expressing α5-GABAA receptor were cultured in 10 cm culture dishes and passaged when the cells grew to 80%-90%. During passaging, the culture medium was aspirated first, then 3 mL of DPBS phosphate buffer salt (Gibco™) was added to the culture dishes, and the culture dishes were shaken slightly, and DPBS was aspirated. 1 mL of trypsin (TrypLE Express, Gibco™) was added thereto, and the cells were digested at 37° C. for 1-2 minutes. Then 3 mL of complete medium (DMEM+10% FBS (Gibco™)) was added and the cells at the bottom of the culture dishes were dispersed. The cell suspension were transferred to a 15 mL centrifugal tube (Corning) and then centrifuged at 200 g for 3 minutes. The supernatant was discarded, 4 mL of complete medium was added, and the cells were gently blown and resuspended for use. If cell passaging was performed, the cell suspension was diluted at a ratio of 1:5 or 1:10. If cells for electrophysiology use were prepared, the cell suspension was diluted in a ratio of 1:12, then added into a 24-well dish (Corning™) in which glass slides were placed and pretreated with Poly-D-Lysine, and the cells were tested after being attached to the walls. The culture time of cells for electrophysiology use was no more than 48 hours.
Drug concentration setting: the final drug concentration used in drug screening was 100 nM, and the GABA concentration range was 0.05 μM. The final drug concentrations used in the dose-inversal agonistic efficiency (%) test were 0.3 nM, 3 nM, 10 nM, 30 nM, 100 nM and 300 nM. The whole cell patch clamp technique was used in electrophysiological experiments, which could refer to the literature (I. Lecker, Y. Yin, D. S. Wang and B. A. Orser, (2013) Potentiation of GABAA receptor activity by volatile anaesthetics is reduced by α5-GABAA receptor-preferring inverse agonists, British Journal of Anaesthesia 110 (S1): i73-i81). The components of extracellular solution (ECS) for electrophysiology use were as follows: 150 mM NaCl, 5 mM KCl, 2.5 mM CaCl2), 1 mM MgCl2, 10 mM HEPES and 10 mM glucose (pH 7.4); electrode internal solutions for electrophysiology use were as follows: 140 mM CsCl, 11 mM EGTA, 10 mM HEPES, 2 mM CaCl2), 1 mM MgCl2, 4 mM MgATP, 2 mM TEA (pH 7.3). The signal acquisition used an EPC-10 amplifier and the PatchMaster software (HEKA). The recording electrode was drawn using borosilicate glass, and the electrode resistance was 4 to 6 MΩ. The ALA-VC3-8PP™ system was used for extracellular administration. Separate cells that grew independently was selected for recording. During recording, the cell membrane potential was clamped at −60 mV. During experiment, an extracellular solution was applied to the cells for about 20 seconds. When the baseline reached to a stable state, the extracellular solution was switched to GABA. Then the current induced by GABA could be detected. […]
An inhibition at 0.1 µM of 39.4% was found for COc1cc2nnc(-c3cc(C)on3)n2nc1OCc1ccc(C#N)cn1 [Embodiment 41] in this work.
An inhibition at 0.1 µM of 38% was found for COc1cccnc1COc1nn2c(-c3cc(C)on3)nnc2cc1OC [Embodiment 52] in this work.
An inhibition at 0.1 µM of 38.3% was found for COCC(C)(C)N1CCc2nc(COc3nn4c(-c5cc(C)on5)nnc4cc3OC)ccc2C1 [Embodiment 190] in this work.
An inhibition at 0.1 µM of 54.3% was found for COc1nccc(COc2nn3c(-c4cc(C)on4)nnc3cc2OC)n1 [Embodiment 72] in this work.
An inhibition at 0.1 µM of 45.8% was found for COc1cnc(COc2nn3c(-c4cc(C)on4)nnc3cc2OC)cc1OC [Embodiment 60] in this work.
An inhibition at 0.1 µM of 29.6% was found for CCNC(=O)c1ccc(COc2nn3c(-c4cc(C)on4)nnc3cc2OCC)nc1 [Embodiment 12, 6-(((7-Ethoxy-3-(5-methylisoxazol-3-yl)-[1,2,4]triazolo[4,3-b]pyridazin-6-yl)oxy)methyl)-N-ethylnicotinamide] in this work.
An inhibition at 0.1 µM of 46.8% was found for COc1cc2nnc(-c3cc(C)on3)n2nc1OCc1cnc(OC2COC2)cn1 [Embodiment 157] in this work.
An inhibition at 0.1 µM of 42.9% was found for COc1cc2nnc(-c3cc(C)on3)n2nc1OCc1ccc(Cl)cn1 [Embodiment 20] in this work.
An inhibition at 0.1 µM of 49.7% was found for COc1cc2nnc(-c3cc(C)on3)n2nc1OCc1ccc2c(n1)CCN(C(=O)N(C)CC(F)(F)F)C2 [Embodiment 204] in this work.
An inhibition at 0.1 µM of 42% was found for COc1cc2nnc(-c3cc(C)on3)n2nc1OCc1ccc2c(=O)n(C3COC3)ccc2n1 [Embodiment 144] in this work.
An inhibition at 0.1 µM of 46.2% was found for COc1ccnc(COc2nn3c(-c4cc(C)on4)nnc3cc2OC)c1 [Embodiment 51] in this work.
An inhibition at 0.1 µM of 23% was found for COc1cc2nnc(-c3cc(C)on3)n2nc1OCc1cccc(Cl)n1 [Embodiment 18] in this work.
An inhibition at 0.1 µM of 36.7% was found for COc1cc2nnc(-c3cc(C)on3)n2nc1OCc1cnc(OCC2CCCO2)cn1 (stereo not shown) [Embodiment 178] in this work.
An inhibition at 0.1 µM of 39.3% was found for CCNC(=O)c1ccc(COc2nn3c(-c4cc(C)on4)nnc3cc2OC)nc1 [Embodiment 35] in this work.
An inhibition at 0.1 µM of 30.8% was found for COc1cc2nnc(-c3cc(C)on3)n2nc1OCc1ccc2c(cnn2CCc2ccccc2)n1 [Embodiment 229, 3-(7-Methoxy-6-(((1-phenethyl-1H-pyrazolo[4,3-b]pyridin-5-yl]methoxy])-[1,2,4]triazolo[4,3-b]pyridazin-3-yl)-5-methylisoxazole] in this work.
An inhibition at 0.1 µM of 51.2% was found for CCn1cnc2ccc(COc3nn4c(-c5cc(C)on5)nnc4cc3OC)nc21 [Embodiment 249] in this work.
An inhibition at 0.1 µM of 52.5% was found for COc1cc2nnc(-c3cc(C)on3)n2nc1OCc1ccc2c(n1)CCN(S(=O)(=O)N(C)C)C2 [Embodiment 205, 2-(((7-Methoxy-3-(5-methylisoxazol-3-yl)-[1,2,4]triazolo[4,3-b]pyridazin-6-yl)oxy)methyl)-N,N-dimethyl-7,8-dihydro-1,6-naphthyridine-6(5H)-sulfonamide] in this work.
An inhibition at 0.1 µM of 57.2% was found for COc1cc2nnc(-c3cc(C)on3)n2nc1OCc1ccc2nn(CCc3ccccc3)cc2n1 [Embodiment 230, 3-(7-Methoxy-6-(((2-phenethyl-2H-pyrazolo[4,3-b]pyridin-5-yl]methoxy])-[1,2,4]triazolo[4,3-b]pyridazin-3-yl)-5-methylisoxazole] in this work.
An inhibition at 0.1 µM of 57.3% was found for COCCOc1ccc(COc2nn3c(-c4noc(C)n4)nnc3cc2OC)nc1 [Embodiment 132] in this work.
An inhibition at 0.1 µM of 47.6% was found for COc1cc2nnc(-c3cc(C)on3)n2nc1OCc1cc(OC2COC2)ccn1 [Embodiment 172] in this work.
An inhibition at 0.1 µM of 69.6% was found for CCn1ccc2nc(COc3nn4c(-c5cc(C)on5)nnc4cc3OC)ccc2c1=O [Embodiment 148] in this work.
An inhibition at 0.1 µM of 31.7% was found for COc1cc2nnc(-c3cc(C)on3)n2nc1OCc1cccc(C2(F)CNC2)n1 [Embodiment 70] in this work.
An inhibition at 0.1 µM of 36.7% was found for COc1cc2nnc(-c3cc(C)on3)n2nc1OCc1cccc(C2CCNC2)n1 (stereo not shown) [Embodiment 123] in this work.
An inhibition at 0.1 µM of 58% was found for CCN1Cc2nc(COc3nn4c(-c5cc(C)on5)nnc4cc3OC)ccc2C1=O [Embodiment 67] in this work.
An inhibition at 0.1 µM of 19.4% was found for Cc1cc(-c2nnc3cc(OCC4CC4)c(OCc4ccccn4)nn23)no1 [Embodiment 14] in this work.
An inhibition at 0.1 µM of 49.8% was found for COc1cc2nnc(-c3cc(C)on3)n2nc1OCc1ccc(OCC2CCCO2)nn1 (stereo not shown) [Embodiment 165] in this work.
An inhibition at 0.1 µM of 54.8% was found for COc1cc2nnc(-c3cc(C)on3)n2nc1OCc1ccc2c(cnn2C(C)C)n1 [Embodiment 236] in this work.
An inhibition at 0.1 µM of 53.1% was found for COc1cc2nnc(-c3cc(C)on3)n2nc1OCc1ccc(OCC2CCOCC2)nn1 [Embodiment 171] in this work.
An inhibition at 0.1 µM of 40.8% was found for COc1cc2nnc(-c3cc(C)on3)n2nc1OCc1ccc2c(n1)CCN(c1nnc(C)o1)C2 [Embodiment 192] in this work.
An inhibition at 0.1 µM of 44.3% was found for COc1cc2nnc(-c3cc(C)on3)n2nc1OCc1ccc2c(cnn2Cc2ccccc2)n1 [Embodiment 222] in this work.
An inhibition at 0.1 µM of 36.9% was found for COc1cc2nnc(-c3cc(C)on3)n2nc1OCc1ccc(OCCN2CCC2)cn1 [Embodiment 133] in this work.
An inhibition at 0.1 µM of 59.6% was found for CCOC(=O)N1CCc2nc(COc3nn4c(-c5cc(C)on5)nnc4cc3OC)ccc2C1 [Embodiment 111, Ethyl 2-(((7-methoxy-3-(5-methylisoxazol-3-yl)-[1,2,4]triazolo[4,3-b]pyridazin-6-yl)oxy)methyl)7,8-dihydro-1,6-naphthyridine-6(5H)-carboxylate] in this work.
An inhibition at 0.1 µM of 49.3% was found for COc1cc2nnc(-c3cc(C)on3)n2nc1OCc1ccc2c(n1)CCN(C(=O)NCC(F)F)C2 [Embodiment 207] in this work.
An inhibition at 0.1 µM of 50% was found for COc1cc2nnc(-c3cc(C)on3)n2nc1OCc1ccc(C2CCCN2)cn1 (stereo not shown) [Embodiment 69, 3-(7-Methoxy-6-((5-(pyrrolidin-2-yl)pyridin-2-yl)methoxy)-[1,2,4]triazolo[4,3-b]pyridazin-3-yl)-5-methylisoxazole] in this work.
An inhibition at 0.1 µM of 49.6% was found for COc1cc2nnc(-c3cc(C)on3)n2nc1OCc1ccc2c(n1)CCN(C(=O)CC#N)C2 [Embodiment 143] in this work.
An inhibition at 0.1 µM of 44.9% was found for COc1cc2nnc(-c3cc(C)on3)n2nc1OCc1ccc(C)cn1 [Embodiment 42] in this work.
An inhibition at 0.1 µM of 47.6% was found for CCN1CCc2nc(COc3nn4c(-c5cc(C)on5)nnc4cc3OC)ccc2C1 [Embodiment 79] in this work.
An inhibition at 0.1 µM of 37.3% was found for COc1ccc2nc(COc3nn4c(-c5cc(C)on5)nnc4cc3OC)ccc2c1 [Embodiment 136] in this work.
An inhibition at 0.1 µM of 39.7% was found for COc1cc2nnc(-c3cc(C)on3)n2nc1OCc1ccc2c(n1)CCN(c1ccccc1)C2 [Embodiment 87, 3-(7-Methoxy-6-((6-phenyl-5,6,7,8-tetrahydro-1,6-naphthalen-2-yl)methoxy)-[1,2,4]triazolo[4,3-b]pyridazin-3-yl)-5-methylisoxazole] in this work.
An inhibition at 0.1 µM of 52.2% was found for COc1cc2nnc(-c3cc(C)on3)n2nc1OCc1ccc2c(n1)CCN(C(=O)c1ccccc1)C2 [Embodiment 131] in this work.
An inhibition at 0.1 µM of 32.3% was found for COc1cc2nnc(-c3cc(C)on3)n2nc1OCc1cccc2ccnn12 [Embodiment 117] in this work.
An inhibition at 0.1 µM of 40.4% was found for COc1cc2nnc(-c3cc(C)on3)n2nc1OCc1cccn(C)c1=O [Embodiment 74] in this work.
An inhibition at 0.1 µM of 32.9% was found for COc1cc2nnc(-c3cc(C)on3)n2nc1OCc1ccc2ccn(C)c2n1 [Embodiment 94] in this work.
An inhibition at 0.1 µM of 48.7% was found for COc1cc2nnc(-c3cc(CO)on3)n2nc1OCc1ccccn1 [Embodiment 46, (3-(7-Methoxy-6-(pyridin-2-ylmethoxy)-[1,2,4]triazolo[4,3-b]pyridazin-3-yl]isoxazol-5-yl)methanol] in this work.
An inhibition at 0.1 µM of 47.8% was found for COc1cc2nnc(-c3cc(C)on3)n2nc1OCc1ccc2c(n1)CCN(CCC#N)C2=O [Embodiment 91] in this work.
An inhibition at 0.1 µM of 31.4% was found for COc1cc2nnc(-c3cc(C)on3)n2nc1OCc1ccc2c(ncn2C2CCOCC2)n1 [Embodiment 248] in this work.
